Source: US12102432B2, “Uses of transdermal glomerular filtration rate measurement in continuous renal replacement therapy” (MediBeacon Inc., priority 2018, dated 2024)
Several values for one entry are separate records, joined by “and”; a condition that tells them apart may be missing. Identical values can stand only once.

Tests used:
[1] = Meropenem infusion in porcine model before CRRT, blood concentration; type: in vivo, Swine; settings: infused for 30 minutes
Description: Swine (3 male and 3 female, for both CVVH and CVVHD modalities) weighing 35-40 kg were used. In this model, a total functional nephrectomy was achieved by ligation of all renal arteries. Animals were inspected by professional veterinary staff within 48 hours of arrival. Any underlying infections or parasitism was treated based on veterinary recommendations. After taking a pre-MB-102 blood sample (baseline), a dose of 6 mg/kg of MB-102 was injected as a single bolus, followed by a 90 minute period of equilibration, to allow for MB-102 systemic redistribution (see FIGS. 7 and 13 for equilibration of fluorescent signal detected by the renal monitoring assembly). Thirty minutes after the MB-102 injection, Meropenum was infused for 30 minutes, which reached a peak concentration in blood ˜1 hr after the start of the infusion. […] Samples collected during these periods, along with the baseline (BSL) sample taken before the MB-102 dose, were assayed, and measured values were used in calculations to compare clearance rates with real-time MB-102 clearance measurements. […] A similar sample collection time-course was initiated at the high flow rate for both the low and high effluent flow rate data sets (seven sample time points at three circuit sites), allowing for similar comparisons of real-time and calculated clearance rates.

[2] = Adsorption of MB-102 to CRRT apparatus, in vitro CVVH model; type: in vitro ADME, bovine; settings: for mean percent change at the end of experiment: average of 6 experiments, 60 min; for percent change at the end of each experiment: single experiments 1-6, initial to 60 min, blood flow 200 mL/min, Quf 33 mL/min
Description: As an initial step, it was determined if the compound MB-102 adsorbs onto the hemodiafilter, tubing or other parts of the CRRT instrument. This study used a continuous venovenous hemofiltration (CVVH) configuration to assess MB-102 adsorptive clearance with a previously validated in vitro CVVH model using 1 L of pH regulated, citrate-anti-coagulated bovine blood. Using a Braun DIAPACT™ CRRT system, two different hemodiafilters were tested: the HF1400 and the M150 hemodiafilters. New bovine blood, hemodiafilters, and CRRT tubing sets were used in each experiment. The blood was continuously stirred and maintained at 37° C. in a water bath during all experiments. Reconstituted MB-102 was added to the blood to achieve a final concentration of ˜6.2 mg/L. Urea was used as a control and added to the blood to produce a blood urea nitrogen (BUN) concentration of ˜75 mg/dL. Blood flow rates of 200 mL/min with an ultrafiltration rate (Quf) of 33 mL/min were tested. This maximized MB-102 contact with the membranes, both on the blood side and via convection through the hemodiafilter membrane. A closed system was developed to maintain a constant volume in the extracorporeal system. The effluent was used as the replacement fluid which was returned to the blood as a post-filter replacement fluid to maintain a constant blood volume. The CRRT instrument was primed with normal saline before operation, consequently the urea and MB-102 dilution caused by the residual priming solution was accounted for. Blood samples were collected from the pre-filter port at 0 (baseline), 5 (at which time mixing was complete), 10, 20, 30, and 60 minutes. Each experiment was repeated six times with new hemodiafilters and tubing sets.
Equations used to calculate the dilution factor and adsorption are as follows:
[formula] wherein C0 is the concentration of MB-102 in the pre-filter at time=0 minutes; and C60 is the concentration of MB-102 in the pre-filter at time=60 minutes.
[formula] where [Urea0] is the urea concentration in the pre-filter at time=0 minutes; and [Urea60] is the urea concentration in the pre-filter at time=60 minutes.
All blood samples were collected and centrifuged at 3000 rpm for 10 minutes. The plasma and effluent samples were transferred to cryovials in duplicate and stored at −80° C. until analysis. BUN concentrations were analyzed with Advia 1800 (Siemens Healthcare Diagnostic Inc., Tarrytown, N.Y., USA) having a lower limit of quantification of 5 mg/dL. […]

[3] = In vitro continuous hemofiltration (CVVH) model, sieving coefficient; type: in vitro ADME, bovine; settings: CVVH
Description: The procedure for the CVVH study was conducted using the model CVVH system illustrated in FIG. 5. The CLTM of urea and MB-102 were evaluated with different blood flow rates, ultrafiltration rate (Quf) and hemodiafilters (Table 1). In a closed-loop system, the formed effluent was returned to the blood as a post-filter replacement fluid downstream from the post-hemodiafilter blood sampling port. Pre- and post-hemodiafilter blood samples, and effluent samples were collected concurrently. Six experiments were conducted for each hemodiafilter, and new hemodiafilters and CRRT apparatus were used for each experiment. Sieving coefficient (SC) and CLTM were calculated as follows:
[formula] where Sc is the sieving coefficient; Cuf is the concentration in the effluent; Ca is the concentration of the solute in the pre-filter; and Cv is the concentration of the solute in the post-filter. CLconv=SC×QUF Equation (4) wherein CLconv is the convective clearance for the post-filter replacement; QUF is the ultrafiltration rate.
(§1) All blood samples were collected and centrifuged at 3000 rpm for 10 minutes. The plasma and effluent samples were transferred to cryovials in duplicate and stored at −80° C. until analysis. BUN concentrations were analyzed with Advia 1800 (Siemens Healthcare Diagnostic Inc., Tarrytown, N.Y., USA) having a lower limit of quantification of 5 mg/dL.
(§2) Similarly, six CVVH and CVVHD experiments with each hemodiafilter were used to detect a 25% difference in MB-102 CLTM between hemodiafilters. Assumptions used in these calculations included: a power of 90% and a standard deviation of 10% with a significance level of p<0.05. A two-tailed, unpaired t-test was used to compare differences between the two hemodiafilters, and the analysis of variance was used to compare different QUF and Qd within each hemodiafilter type.

[4] = In vitro continuous hemodialysis (CVVHD) model, saturation coefficient; type: in vitro ADME, bovine; settings: for Saturation coefficient (mean ± SD): CVVHD, blood flow 200 mL/min
Description: For CVVHD experiments, the CLTM was assessed using a previously validated in vitro CVVHD model as illustrated in FIG. 6. Commonly used effluent flow rates of 16, 33, 50, and 100 mL/min, and a blood flow rate of 200 mL/min were used. Effluent was prepared according to directions from the manufacturer by mixing sodium bicarbonate powder (NATURALYTE® 4000, Fresenius Medical Care, Waltham, Mass., USA) with distilled water in a 45:1 ratio. After adding MB-102 and urea to the blood, it was recirculated through the circuit for 5 min for uniform coating of the extracorporeal circuit. A single-pass mode of the CVVHD procedure with four different flow rates was run in random order for each hemodiafilter. Blood samples were collected from the pre- and post-filter ports, and spent effluent samples were taken from the effluent port 5 min after initiation of the CVVHD experiments at all four effluent flow rates. These experiments were conducted on 6 new hemodiafilters and CRRT tubing sets. Saturation coefficient (SA) and CLTM were calculated as follows:
[formula] CLdiff=(SA×Qd) Equation (6)
where SA is the saturation coefficient; CUF is the concentration in the effluent; Ca is the concentration of the solute in the pre-filter; CV is the concentration of the solute in the post-filter; CLdiff is the diffusion clearance for post-filter replacement; Qd is the effluent flow rate.
as §1, §2

Row | SMILES | time to peak concentration in blood after the start of the infusion [1] | mean percent change at the end of experiment ([2]; HF1400 hemodiafilter) | percent change at the end of each experiment ([2]; HF1400 hemodiafilter) | mean percent change at the end of experiment ([2]; M150 hemodiafilter) | percent change at the end of each experiment ([2]; M150 hemodiafilter) | Mean sieving coefficient ([3]; HF1400, ultrafiltration rate 16.7 mL/min) | Mean sieving coefficient ([3]; HF1400, ultrafiltration rate 33.3 mL/min) | Mean sieving coefficient ([3]; HF1400, ultrafiltration rate 50 mL/min) | Mean sieving coefficient ([3]; M150, ultrafiltration rate 16.7 mL/min) | Mean sieving coefficient ([3]; M150, ultrafiltration rate 33.3 mL/min) | Mean sieving coefficient ([3]; M150, ultrafiltration rate 50 mL/min) | Saturation coefficient (mean ± SD) ([4]; HF1400, Qd 16.7 mL/min) | Saturation coefficient (mean ± SD) ([4]; HF1400, Qd 33.3 mL/min) | Saturation coefficient (mean ± SD) ([4]; HF1400, Qd 50 mL/min) | Saturation coefficient (mean ± SD) ([4]; HF1400, Qd 100 mL/min) | Saturation coefficient (mean ± SD) ([4]; M150, Qd 16.7 mL/min) | Saturation coefficient (mean ± SD) ([4]; M150, Qd 33.3 mL/min) | Saturation coefficient (mean ± SD) ([4]; M150, Qd 50 mL/min) | Saturation coefficient (mean ± SD) ([4]; M150, Qd 100 mL/min) | mean SA values ([4]; low effluent flow rates (16-50 mL/min))
1 | C[C@@H](O)[C@H]1C(=O)N2C(C(=O)O)=C(S[C@@H]3CN[C@H](C(=O)N(C)C)C3)[C@H](C)[C@H]12 [Meropenem, meropenem] | ~1 h | – | – | – | – | – | – | – | – | – | – | – | – | – | – | – | – | – | – | –
2 | NC(N)=O [Urea, reference compound] | – | 19.5% | 19.6% and 20.9% and 18.6% and 20.0% and 18.2% | 19.3% | 17.5% and 19.5% and 21.7% and 18.0% and 17.0% and 22.0% | 1.08 ± 0.03 | 1.09 ± 0.05 | 1.08 ± 0.07 | 1.00 ± 0.05 | 1.04 ± 0.10 | 1.05 ± 0.04 | 1.04 ± 0.07 | 1.19 ± 0.09 | 1.17 ± 0.11 | 1.17 ± 0.19 | 1.08 ± 0.08 | 1.16 ± 0.04 | 1.15 ± 0.15 | 1.35 ± 0.20 | approximately unity
